Data set [1] in a line: Hygroscopicity of the crystalline salt. Format: physicochemical.
Data set [2] can be described thus: Storage stability at room temperature. The data set is classed as physicochemical. Conditions: after 36 months of storage at room temperature.
Data set [3] in a line: Solubility (kinetic solubility) of salt forms at pH 2. The following applies: for solubility: in pH 2 water. Format: physicochemical.
Data set [4] in a line: Bioavailability of salt forms in rats. Format: in vivo. The following applies: for bioavailability: in rats.

The source of these data is patent US12006318B2, “Crystalline forms of C-C chemokine receptor type 4 antagonist and uses thereof” (RAPT THERAPEUTICS, INC., priority 2019, dated 2024).

Like-named read-outs stand apart in the source and are kept apart here.

Usually solubility stands for how much of the substance goes into solution per volume. The term bioavailability denotes the share of a dose that reaches the circulation, judged against a reference dose that is usually intravenous. As to `C[C@H](c1ccc(Cl)cc1Cl)n1nc(C(F)(F)F)c2ncc(N3CC([C@H]4CCCN(CCO)C4)C3)nc21` [crystalline form A, 2-((R)-3-(1-(1-((R)-1-(2,4-Dichlorophenyl)ethyl)-3-(trifluoromethyl)-1H-pyrazolo[3,4-b]pyrazin-6-yl)azetidin-3-yl)piperidin-1-yl)ethan-1-ol benzene sulfonate], the hygroscopicity result in data set [1] is given as “low hygroscopicity”. Further, the stability on storage result in data set [2] is listed as “outstanding stability”; in data set [2] (listed as benzenesulfonic acid salt), “superior stability”. Further, the “solubility (in words)” value in data set [3] (embodiment statement) is “good solubility”. Further, the solubility in data set [3] (water at pH 2, aqueous buffer) is 411 µM. For the same compound, in data set [4] (embodiment statement), the “bioavailability (in words)” value is listed as “good bioavailability”. In data set [4] (rat, in vivo, read-out: bioavailability), the bioavailability is 34%.

For `C[C@H](c1ccc(Cl)cc1Cl)n1nc(C(F)(F)F)c2ncc(N3CC([C@H]4CCCN(CCO)C4)C3)nc21.Cc1ccc(S(=O)(=O)O)cc1` [para-toluenesulfonic acid salt], the “kinetic solubility as fraction of that of the HCl salt” value in data set [3] (at pH 2, relative to HCl salt) was “⅕”. Moreover, the solubility in data set [3] came out at 190 µM. For the same compound, the “solubility compared with the amorphous HCl salt” value in data set [3] (relative to amorphous HCl salt) is “less soluble”. Besides, in data set [4], the bioavailability came to 22%.
